In patent EP2651946B1, “2-SUBSTITUTED IMIDAZOPYRAZINES FOR USE AS MPS-1 AND TKK INHIBITORS IN THE TREATMENT OF HYPERPROLIFERATIVE DISORDERS” (Bayer Intellectual Property GmbH, priority 2010, dated 2012):

Target: T1, human kinase Mps-1 (Homo sapiens, UniProt P33981)
T1 construct: N-terminally GST-tagged human full length recombinant Mps-1 kinase; purchased Invitrogen, Karslruhe, Germany PV4071
T1 sequence (P33981 1-857): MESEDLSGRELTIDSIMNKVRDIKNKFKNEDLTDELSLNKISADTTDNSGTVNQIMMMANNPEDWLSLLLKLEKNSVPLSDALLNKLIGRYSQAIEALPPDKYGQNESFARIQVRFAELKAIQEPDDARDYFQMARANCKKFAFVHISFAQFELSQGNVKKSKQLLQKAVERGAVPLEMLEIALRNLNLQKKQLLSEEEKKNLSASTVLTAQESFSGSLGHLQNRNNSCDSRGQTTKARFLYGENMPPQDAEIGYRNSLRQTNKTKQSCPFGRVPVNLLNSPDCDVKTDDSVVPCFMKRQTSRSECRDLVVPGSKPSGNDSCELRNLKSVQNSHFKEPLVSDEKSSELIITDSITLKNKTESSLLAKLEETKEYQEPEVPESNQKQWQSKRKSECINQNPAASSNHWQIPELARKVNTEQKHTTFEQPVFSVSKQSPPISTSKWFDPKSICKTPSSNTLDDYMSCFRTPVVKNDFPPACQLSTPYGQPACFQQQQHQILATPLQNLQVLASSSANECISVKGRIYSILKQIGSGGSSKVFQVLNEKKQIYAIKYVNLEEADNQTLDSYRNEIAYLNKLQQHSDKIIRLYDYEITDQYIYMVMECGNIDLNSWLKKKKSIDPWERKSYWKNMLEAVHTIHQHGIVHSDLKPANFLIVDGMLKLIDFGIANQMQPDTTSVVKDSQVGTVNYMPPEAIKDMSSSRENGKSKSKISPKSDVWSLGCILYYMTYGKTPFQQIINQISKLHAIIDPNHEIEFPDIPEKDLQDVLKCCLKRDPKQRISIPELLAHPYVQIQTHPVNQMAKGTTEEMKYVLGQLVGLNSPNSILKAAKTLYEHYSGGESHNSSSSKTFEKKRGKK
Test: Mps-1 kinase assay (TR-FRET)
Assay type: biochemical
Settings: N-terminally GST-tagged human full length recombinant Mps-1; 10 µM ATP; 1 µM peptide substrate; 15 min pre-incubation, 60 min reaction at 22°C; read-out: Mps1 IC50
Protocol: The human kinase Mps-1 phosphorylates a biotinylated substrate peptide. Detection of the phosphorylated product is achieved by time-resolved fluorescence resonance energy transfer (TR-FRET) from Europium-labelled anti-phospho-Serine/Threonine antibody as donor to streptavidin labelled with cross-linked allophycocyanin (SA-XLent) as acceptor. Compounds are tested for their inhibition of the kinase activity.
N-terminally GST-tagged human full length recombinant Mps-1 kinase (purchased from Invitrogen, Karslruhe, Germany, cat. no PV4071) was used. As substrate for the kinase reaction a biotinylated peptide of the amino-acid sequence PWDPDDADITEILG (C-terminus in amide form, purchased from Biosynthan GmbH, Berlin) was used.
For the assay 50 nL of a 100-fold concentrated solution of the test compound in DMSO was pipetted into a black low volume 384well microtiter plate (Greiner Bio-One, Frickenhausen, Germany), 2 µl of a solution of Mps-1 in assay buffer [0.1 mM sodium-ortho-vanadate, 10 mM MgCl2, 2 mM DTT, 25 mM Hepes pH 7.7, 0.05% BSA, 0.001% Pluronic F-127] were added and the mixture was incubated for 15 min at 22°C to allow pre-binding of the test compounds to Mps-1 before the start of the kinase reaction. […]
The resulting mixture was incubated 1 h at 22°C to allow the binding of the phosphorylated peptide to the anti-phospho(Ser/Thr)-Europium-antibody. Subsequently the amount of phosphorylated substrate was evaluated by measurement of the resonance energy transfer from the Europium-labelled anti-phospho(Ser/Thr) antibody to the Streptavidin-XLent. Therefore, the fluorescence emissions at 620 nm and 665 nm after excitation at 350 nm was measured in a Viewlux TR-FRET reader (PerkinElmer LAS, Rodgau-Jugesheim, Germany). The "blank-corrected normalized ratio" ( a Viewlux specific readout, similar to the traditional ratio of the emissions at 665 nm and at 622 nm, in which blank and Eudonor crosstalk are subtracted from the 665 nm signal before the ratio is calculated) was taken as the measure for the amount of phosphorylated substrate. […]

Row | SMILES | IC50 [nM]
1 | CC(C)CNc1nc(-c2ccccc2)cn2c(-c3ccc(C(=O)NC4CC4)cc3)c(CO)nc12 [Example 1-1, N-cyclopropyl-4-[2-(hydroxymethyl)-8-(isobutylamino)-6-phenylimidazo[1,2-a]pyrazin-3-yl]benzamide] | 178
2 | CC(C)CNc1nc(-c2ccccc2)cn2c(-c3ccc(C(=O)NC4CC4)cc3)c(N)nc12 [Example 4-1, 4-[2-Amino-8-(isobutylamino)-6-phenylimidazo[1,2-a]pyrazin-3-yl]-N-cyclopropylbenzamide] | 16
3 | COC(=O)c1nc2c(NCC(C)C)nc(-c3ccccc3)cn2c1-c1ccc(C(=O)NC2CC2)cc1 [Example 3-1, Methyl 3-[4-(cyclopropylcarbamoyl)phenyl]-8-[(2-methylpropyl)amino]-6-phenylimidazo[1,2-a]pyrazine-2-carboxylate] | 4250
